This passage reports relative viability results from the supplement of paper PMC10307832.

Experiment in all cases: relative viability (nuclei count vs DMSO), 5 days (fraction); higher = more cells survive
Compound in test [1]: CC1=C(C=CC(=C1)[N+](=O)[O-])NS(=O)(=O)C2=C(C=CC(=C2)Cl)Cl [FH535] + N=C(N)NC(=N)NCCc1ccccc1 [Phenformin] (partner 250 µM)
The essentials: (§1)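 After 5 days of treatment, lung cancer cells in 1536-well plates were fixed and stained in a single step (final 0.05% Triton X-100, 1% formaldehyde, 1 ug/ml Hoechst) and their nuclei counted on 4× images. Treatment had been applied by pin tool the day after seeding as one drug alone or as a fixed anchor-drug dose with five library-drug doses (not always all listed) in √10 steps. Relative viability is the nuclei count of treated wells divided by that of vehicle wells, and values are medians of duplicate plates.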

Compound in test [2]: CC1=C(C=CC(=C1)[N+](=O)[O-])NS(=O)(=O)C2=C(C=CC(=C2)Cl)Cl [FH535] + O=C(CCCCCCC(=O)Nc1ccccc1)NO [Vorinostat] (partner 1 µM)
The essentials: as §1

Compound in test [3]: CC1=C(C=CC(=C1)[N+](=O)[O-])NS(=O)(=O)C2=C(C=CC(=C2)Cl)Cl [FH535] + CS(=O)(=O)N1CCN(Cc2cc3nc(-c4cccc5[nH]ncc45)nc(N4CCOCC4)c3s2)CC1 [Pictilisib] (partner 1 µM)
A digest of the protocol: as §1

Compound in test [4]: CC1=C(C=CC(=C1)[N+](=O)[O-])NS(=O)(=O)C2=C(C=CC(=C2)Cl)Cl [FH535] + Cc1cc(Nc2cc(N3CCN(C)CC3)nc(Sc3ccc(NC(=O)C4CC4)cc3)n2)n[nH]1 [Tozasertib] (partner 0.1 µM)
The essentials: as §1

Compound in test [5]: CC1=C(C=CC(=C1)[N+](=O)[O-])NS(=O)(=O)C2=C(C=CC(=C2)Cl)Cl [FH535] + Cc1nc(NC(=O)N2CCC[C@H]2C(N)=O)sc1-c1ccnc(C(C)(C)C(F)(F)F)c1 [Alpelisib] (partner 2 µM)
A digest of the protocol:
as §1

ChaGo-K-1: the relative viability was 0.462 in test [1] (first compound 0.04 µM); 0.554 in test [1] (first compound 0.1265 µM); 0.428 in test [1] (first compound 0.4 µM); 0.384 in test [1] (first compound 1.265 µM); 0.469 in test [2] (first compound 0.04 µM); 0.732 in test [2] (first compound 0.1265 µM). Further, the relative viability in test [2] (first compound 0.4 µM) worked out at 0.693; in test [2] (first compound 1.265 µM) it was 0.59; in test [3] (first compound 0.04 µM), 0.55; in test [3] (first compound 0.1265 µM), 1.07; in test [3] (first compound 0.4 µM), 0.658; in test [3] (first compound 1.265 µM), 0.436. Moreover, the relative viability was 0.225 in test [4] (first compound 0.04 µM), 0.236 in test [4] (first compound 0.1265 µM), 0.216 in test [4] (first compound 0.4 µM) and 0.202 in test [4] (first compound 1.265 µM).

With EKVX, the relative viability worked out at 0.238 in test [1] (first compound 0.04 µM); 0.223 in test [1] (first compound 0.1265 µM); 0.173 in test [1] (first compound 0.4 µM); 0.153 in test [1] (first compound 1.265 µM); 0.825 in test [5] (first compound 0.04 µM); 0.976 in test [5] (first compound 0.1265 µM). In addition, the relative viability was 0.823 in test [5] (first compound 0.4 µM); 0.75 in test [5] (first compound 1.265 µM); 0.403 in test [2] (first compound 0.04 µM); 0.819 in test [2] (first compound 0.1265 µM); 0.693 in test [2] (first compound 0.4 µM); 0.222 in test [2] (first compound 1.265 µM). Also, the relative viability turned out to be 0.411 in test [3] (first compound 0.04 µM); 0.401 in test [3] (first compound 0.1265 µM); 0.411 in test [3] (first compound 0.4 µM); 0.425 in test [3] (first compound 1.265 µM); 0.405 in test [4] (first compound 0.04 µM); 0.402 in test [4] (first compound 0.1265 µM). Moreover, the relative viability in test [4] (first compound 0.4 µM) is 0.452; in test [4] (first compound 1.265 µM), 0.333.

As to EMC-BAC-2, the relative viability in test [1] (first compound 0.04 µM) amounted to 0.416; in test [1] (first compound 0.1265 µM), 0.554; in test [1] (first compound 0.4 µM) it was 0.46; in test [1] (first compound 1.265 µM), 0.359; in test [5] (first compound 0.04 µM), 0.731; in test [5] (first compound 0.1265 µM), 0.762. In addition, the relative viability came to 0.716 in test [5] (first compound 0.4 µM); 0.632 in test [5] (first compound 1.265 µM); 0.297 in test [2] (first compound 0.04 µM); 0.449 in test [2] (first compound 0.1265 µM); 0.419 in test [2] (first compound 0.4 µM); 0.308 in test [2] (first compound 1.265 µM). Moreover, the relative viability in test [3] (first compound 0.04 µM) stood at 0.506; in test [3] (first compound 0.1265 µM), 0.507; in test [3] (first compound 0.4 µM), 0.544; in test [3] (first compound 1.265 µM), 0.526; in test [4] (first compound 0.04 µM) it was 0.289; in test [4] (first compound 0.1265 µM) it was 0.312. For the same cell line, the relative viability was found to be 0.306 in test [4] (first compound 0.4 µM) and 0.254 in test [4] (first compound 1.265 µM).

Consider IA-LM, for which the relative viability in test [5] (first compound 0.04 µM) came out at 0.827; in test [5] (first compound 0.1265 µM) it was 0.691; in test [5] (first compound 0.4 µM) it was 0.642; in test [5] (first compound 1.265 µM), 0.688; in test [2] (first compound 0.04 µM) it was 0.999; in test [2] (first compound 0.1265 µM) it was 1.14. Moreover, the relative viability in test [2] (first compound 0.4 µM) amounted to 0.954; in test [2] (first compound 1.265 µM), 0.914; in test [3] (first compound 0.04 µM), 0.328; in test [3] (first compound 0.1265 µM) it was 0.396; in test [3] (first compound 0.4 µM), 0.389; in test [3] (first compound 1.265 µM), 0.303.

As to NCI-H1563, the relative viability in test [1] (first compound 0.04 µM) is 0.665; in test [1] (first compound 0.1265 µM), 0.669; in test [1] (first compound 0.4 µM), 0.644; in test [1] (first compound 1.265 µM), 0.563; in test [5] (first compound 0.04 µM) it was 0.89; in test [5] (first compound 0.1265 µM), 0.931. For the same cell line, the relative viability in test [5] (first compound 0.4 µM) is 0.981; in test [5] (first compound 1.265 µM) it was 0.837; in test [3] (first compound 0.04 µM), 0.631; in test [3] (first compound 0.1265 µM), 0.657; in test [3] (first compound 0.4 µM), 0.627; in test [3] (first compound 1.265 µM), 0.637.

In the case of NCI-H1650, the relative viability in test [1] (first compound 0.04 µM) is 0.365; in test [1] (first compound 0.1265 µM), 0.405; in test [1] (first compound 0.4 µM) it was 0.33; in test [1] (first compound 1.265 µM), 0.201; in test [2] (first compound 0.04 µM), 0.492; in test [2] (first compound 0.1265 µM) it was 0.564. Also, the relative viability in test [2] (first compound 0.4 µM) amounted to 0.509; in test [2] (first compound 1.265 µM), 0.441; in test [3] (first compound 0.04 µM), 0.503; in test [3] (first compound 0.1265 µM), 0.56; in test [3] (first compound 0.4 µM), 0.545; in test [3] (first compound 1.265 µM) it was 0.594. The relative viability was determined as 0.369 in test [4] (first compound 0.04 µM), 0.425 in test [4] (first compound 0.1265 µM), 0.513 in test [4] (first compound 0.4 µM) and 0.343 in test [4] (first compound 1.265 µM).

Regarding NCI-H1703, the relative viability in test [5] (first compound 0.04 µM) stood at 0.403; in test [5] (first compound 0.1265 µM), 0.362; in test [5] (first compound 0.4 µM), 0.327; in test [5] (first compound 1.265 µM), 0.269; in test [3] (first compound 0.04 µM), 0.195; in test [3] (first compound 0.1265 µM), 0.213. For the same cell line, the values for the relative viability in test [3] (first compound 0.4 µM) and in test [3] (first compound 1.265 µM) were 0.257 and 0.219, respectively.

For the cell line NCI-H1792, the relative viability in test [1] (first compound 0.04 µM) came to 0.216; in test [1] (first compound 0.1265 µM), 0.358; in test [1] (first compound 0.4 µM), 0.267; in test [1] (first compound 1.265 µM) it was 0.235; in test [5] (first compound 0.04 µM), 0.64; in test [5] (first compound 0.1265 µM), 0.73. For the same cell line, the relative viability in test [5] (first compound 0.4 µM) is 0.664; in test [5] (first compound 1.265 µM) it was 0.53; in test [3] (first compound 0.04 µM), 0.251; in test [3] (first compound 0.1265 µM), 0.289; in test [3] (first compound 0.4 µM), 0.317; in test [3] (first compound 1.265 µM), 0.256.

For NCI-H2342, the relative viability in test [1] (first compound 0.04 µM) is 0.559; in test [1] (first compound 0.1265 µM), 0.602; in test [1] (first compound 0.4 µM) it was 0.611; in test [1] (first compound 1.265 µM) it was 0.437; in test [2] (first compound 0.04 µM), 0.674; in test [2] (first compound 0.1265 µM), 0.725. Further, the relative viability in test [2] (first compound 0.4 µM) amounted to 0.87; in test [2] (first compound 1.265 µM) it was 0.721; in test [4] (first compound 0.04 µM), 0.541; in test [4] (first compound 0.1265 µM), 0.564; in test [4] (first compound 0.4 µM) it was 0.445; in test [4] (first compound 1.265 µM), 0.454.

Turning to SW 900, the relative viability in test [1] (first compound 0.04 µM) was found to be 0.569; in test [1] (first compound 0.1265 µM), 0.667; in test [1] (first compound 0.4 µM), 0.48; in test [1] (first compound 1.265 µM), 0.236; in test [2] (first compound 0.04 µM), 0.483; in test [2] (first compound 0.1265 µM), 0.257. For the same cell line, the relative viability is 0.378 in test [2] (first compound 0.4 µM); 0.358 in test [2] (first compound 1.265 µM); 0.535 in test [4] (first compound 0.04 µM); 0.525 in test [4] (first compound 0.1265 µM); 0.536 in test [4] (first compound 0.4 µM); 0.484 in test [4] (first compound 1.265 µM).
